Measured values: patent US6953786B2, “Compositions comprising plant-derived polyphenolic compounds and inhibitors of reactive oxygen species and methods of using thereof” (The Regents of the University of California, priority 2002, dated 2005)
Marks after values point to notes of the source that are not given here. Values belong to the molecule of their own block, whether it stands above or below them.

Legend:
Mia PACA-2 = test: Pancreatic cancer growth assay in nude mouse model; assay type: in vivo
Procedure: To determine the effect of a polyphenolic compound on pancreatic cancer cell growth, the following assay using a nude mouse model was conducted. Specifically, the effect of quercetin was tested in a nude mouse model of pancreatic cancer using the highly malignant pancreatic cancer cell line, Mia PACA-2.
Tumor induction in nude mice was performed as described by Hotz HC, et al. (2001) Pancreas 22:113-121, which is herein incorporated by reference. For subcutaneous tumor formation, 1×10^7 Mia PACA-2 tumor cells were subcutaneously injected in the medio-dorsal region of a nude mouse. After 4 weeks a small tumor fragment, about 1 mm in diameter, was removed from the subcutaneous tumor and transplanted into the pancreatic tail of mice of two study groups. Ten days after tumor transplantation, treatment with or without quercetin was initiated. The treated animals received daily intraperitoneal injections of 1.3 mg quercetin dissolved in DMSO; the control group received DMSO only by intraperitoneal injection. The animals were sacrificed once clinical tumor signs including severe cachexia ascites with abdominal distension or heavy tumor burden, larger than 1.5 cm, became apparent. Tumor volume was calculated as described by Hotz H C, et al. (2001) as 0.5×length×width×depth. Metastatic tumor spread was determined macroscopically at autopsy in all thoracic, abdominal, retroperitoneal and pelvic organs. All macroscopic suspicious lesions were further confirmed as tumor dissemination by microscopic analysis. Each value in the metastatic score represented a different organ of metastatic tumor spread.

NF-κB = NF-κB DNA binding activity (EMSA / gel shift); assay type: cell-based, human; conditions: for NF-κB activation (DNA binding): Mia PACA-2, 24 hours, no serum, polyphenols 100 μM, MG-132 20 μM; for NF-κB activation caused by serum: Mia PACA-2, 72 hours, with serum, DPI 15 μM, trans-resveratrol 100 μM, genistein 100 μM, LY294002 50 μM
Procedure: In order to determine the role of activated NF-κB in the regulation of apoptosis caused by the polyphenolic compound, the following assay was conducted. BSp73AS cells were cultured for 6 hours and Mia PACA-2 cells were cultured in the absence of serum or growth factors for 24 hours in the absence (controls) or presence of rutin, quercetin, trans-resveratrol, or genistein, each at 100 μM and 20 μM proteosome inhibitor MG-132. Nuclear proteins were isolated and analyzed for NF-κB DNA binding activity with electrophoretic mobility shift assay (EMSA).
Specifically, aliquots of nuclear extracts with equal amount of protein, about 2 to about 10 μg, were mixed in 20 μl reactions with a buffer comprising 10 mM HEPES (pH 7.6), 50 mM KCl, 0.1 mM EDTA, 1 mM DTT, 10% (vol/vol) glycerol and 3 μg poly[d (I-C)]. After aliquots were equilibrated on ice for 5 minutes, binding reactions were stared by addition of 20-60,000 counts/min (20 fM) of ^32P-labeled DNA probes and allowed to proceed for 25-30 minutes at room temperature or up to 1 hour on ice. The oligonucleotide probe
containing the κB binding motif (underlined) was annealed to the complementary oligonucleotide with a 5′-G overhang and end-labeled using Klenow DNA polymerase I. The samples were electrophoresed at room temperature in 0.5×TBE buffer (1×TBE 89 mM Tris base, 89 mM boric acid and 2 mM EDTA) on nondenaturing 4.5% polyacrylamide gel at 200 V. Gels were dried and directly analyzed in the PhosphorImager (Molecular Dynamics, Sunnyvale, Calif.). The experiment was repeated twice.
To study the effects of combinations of DPI and polyphenolic compounds on serum-induced activation of NF-κB and protection from apoptosis, the following assay was conducted. Mia PACA-2 cells were cultured for 72 hours in the presence of serum with or without 100 μM trans-resveratrol, 15 μM DPI, a combination of trans-resveratrol, 100 μM genistein, or a combination of genistein and DPI. NF-κB binding activity was measured in nuclear extracts by gel shift assay as described above.
To determine the effects of LY29400 and DPI on NF-κB activation, Mia PACA-2 cells were cultured for 72 hours in the presence of serum and 15 μM DPI with or without 50 μM LY294002. NF-κB DNA binding activity was measured in nuclear extracts by gel shift assay as described above.

BSp73AS cells = test: Oligonucleosomal DNA fragmentation (agarose gel); assay type: cell-based, rat; conditions: 6 hours, 100 μM, no serum
Procedure: To confirm the apoptosis in vivo results, the effects of quercetin, rutin, and trans-resveratrol in other apoptosis assays in Mia PACA-2 cells and BSp73AS cells in culture were conducted. BSp73AS cells are derived from a rat pancreatic carcinoma and both Mia PACA-2 and BSp73AS cells have mutated p53 and express K-ras. Human pancreatic carcinoma cell line Mia PACA-2 and rat pancreatic carcinoma BSp73AS were cultured in Dulbecco's Modified Eagle's Medium supplemented with 10% heat inactivated FBS, penicillin G (100 U/ml) and streptomycin ([…]) in a humidified atmosphere comprising 5% (v/v) CO2. When cells were 90% confluent they were detached, washed with alternating centrifugation and resuspension, plated and incubated in the same media without FBS and with the indicated concentrations of polyphenolic compounds or vehicle for up to 96 hours. Oligonucleotide DNA fragmentation, annexin staining, and PARP proteolysis assays were conducted as follows: BSp73AS pancreatic cancer cells were cultured for 6 hours in the presence or absence of 100 μM of rutin, quercetin, or trans-resveratrol. DNA was isolated as described by Gukovskaya AS, et al. (1997) Clin Invest 100: 1853-1862, which is herein incorporated by reference. […]

[1] = nude mice with Mia PACA-2 tumor in pancreatic tail, daily i.p. 1.3 mg quercetin, means ± SE, n=8

NF-κB activation (DNA binding) (NF-κB): has no effect on NF-κB
Structure (SMILES): O=c1c(-c2ccc(O)cc2)coc2cc(O)cc(O)c12 [genistein]
growth of pancreatic cancer in a nude mouse model (Mia PACA-2): inhibition of growth
NF-κB activation caused by serum (NF-κB): not inhibited

Structure (SMILES): O=c1c(O)c(-c2ccc(O)c(O)c2)oc2cc(O)cc(O)c12 [quercetin]
Number of metastatic sites (organs with metastatic lesions) (Mia PACA-2; [1]): 0.6
Tumor volume, cm^3 (Mia PACA-2; [1]): 1.56 ± 0.27* cm^3
Number of metastatic sites (organs with metastatic lesions) (Mia PACA-2; nude mice with Mia PACA-2 tumor in pancreatic tail, daily i.p. 1.3 mg quercetin, means ± SE, n=8, listed as Quercetin): 0.62 ± 0.26
Survival (Mia PACA-2; nude mice with Mia PACA-2 tumor transplanted into pancreatic tail, daily intraperitoneal 1.3 mg quercetin in DMSO, means ± SE, n=8, days after transplantation until animal appeared ill from abdominal distension): 75.00 ± 2.50 days
growth of pancreatic cancer in a nude mouse model (Mia PACA-2): inhibition of growth
oligonucleosomal DNA fragmentation (BSp73AS cells): caused an increase
NF-κB activation (DNA binding) (NF-κB): inhibit NF-κB activation

NF-κB activation (DNA binding) (NF-κB): inhibit NF-κB activation
Structure (SMILES): Oc1ccc(/C=C/c2cc(O)cc(O)c2)cc1 [trans-resveratrol]
oligonucleosomal DNA fragmentation (BSp73AS cells): caused an increase
NF-κB activation caused by serum (NF-κB): not inhibited
